Laboratory results from publication PMC7714403 (JCI Insight, 2020).

Key:
FLT3 D835Y = biological target: T1, FLT3 D835Y (Homo sapiens, UniProt P36888, D835Y); test: KdELECT binding assay
T1 construct: purchased Eurofins DiscoverX

[1] = tested on: MV4-11, MOLM13, and MOLM13-RES cells; test: MTT viability assay; assay type: cell-based; conditions: Homo sapiens; range over MV4-11, MOLM13, MOLM13-RES
Method: Drug treatments were carried out for 72 hours. Details are provided in the Supplemental Methods.

[2] = tested on: phospho-FLT3 and phospho-STAT5 in Ba/F3-FLT3-ITD/F691L cells; test: Western blot, signaling inhibition; assay type: cell-based, mouse; conditions: increasing concentrations, 1 hour
Method: MOM13 cells were serum starved (RPMI plus 0.5% FBS) for 18–24 hours prior to start of drug treatment. For other cells, they were not serum starved. Drug treatments were carried out for 1 or 4 hours, at which time cells were lysed with Cell Lysis buffer (CST) or RIPA buffer (CST) supplemented with protease and phosphatase inhibitors. […] Western blots were developed with either Signal Fire ECL reagent (CST) or SuperSignal West Femto Maximum Sensitivity Substrate (Invitrogen) using Film or Odyssey FC Imaging System (LI-COR Biosciences). Western blots were repeated in 2–3 biological replicate experiments.

AGK = AGK (Homo sapiens, UniProt Q53H12); test: KiNativ, OCI cells live cell; assay type: cell-based; conditions: 2 h, labeling site ATP, peptide […]
CaMK1a = CaMK1a (Homo sapiens, UniProt Q14012); test: KiNativ, OCI cells live cell; assay type: cell-based; conditions: 2 h
CDC2 = CDC2 (Homo sapiens, UniProt P06493); test: KiNativ, OCI cells live cell; assay type: cell-based; conditions: 2 h
CDK9 = CDK9 (Homo sapiens, UniProt P50750); test: KiNativ, OCI cells live cell; assay type: cell-based; conditions: 2 h
CHK1 = CHK1 (Homo sapiens, UniProt O14757); test: KiNativ, OCI cells live cell; assay type: cell-based; conditions: labeling site Lys2, peptide DIKPENLLLDER
Erk1 = Erk1 (Homo sapiens, UniProt P27361); test: KiNativ, OCI cells live cell; assay type: cell-based; conditions: 2 h, labeling site Lys2, peptide […]
FAM20B = FAM20B (Homo sapiens, UniProt O75063); test: KiNativ, OCI cells live cell; assay type: cell-based; conditions: 2 h, labeling site ATP, peptide […]
GCN2 domain2 = biological target: T2, GCN2 domain2 (Homo sapiens, UniProt Q9P2K8); test: KiNativ, OCI cells live cell; assay type: cell-based; conditions: 2 h
T2 construct: GCN2 domain2

KSR1, KSR2 = test: KiNativ, OCI cells live cell; assay type: cell-based, human; conditions: labeling site Activation Loop, peptide SKNVFYDNGK
LCK = LCK (Homo sapiens, UniProt P06239); test: KiNativ, OCI cells live cell; assay type: cell-based; conditions: 2 h, labeling site Activation Loop, peptide […]
MAP2K6 = biological target: T3, MAP2K6 (Homo sapiens, UniProt P52564); test: KiNativ, OCI cells live cell; assay type: cell-based; conditions: 2 h
T3 sequence (P52564 1-334): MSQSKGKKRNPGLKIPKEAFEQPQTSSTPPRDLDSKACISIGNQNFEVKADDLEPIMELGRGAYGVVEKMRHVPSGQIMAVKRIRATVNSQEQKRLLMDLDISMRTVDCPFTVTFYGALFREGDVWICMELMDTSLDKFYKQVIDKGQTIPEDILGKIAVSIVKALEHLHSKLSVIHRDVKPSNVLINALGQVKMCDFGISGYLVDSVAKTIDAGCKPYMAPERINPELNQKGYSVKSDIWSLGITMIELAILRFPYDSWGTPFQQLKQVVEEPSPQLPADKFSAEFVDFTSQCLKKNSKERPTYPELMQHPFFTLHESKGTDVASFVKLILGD

MARK3 = MARK3 (Homo sapiens, UniProt P27448); test: KiNativ, OCI cells live cell; assay type: cell-based; conditions: 2 h, labeling site Lys1, peptide […]
MARK3, MARK4 = test: KiNativ, OCI cells live cell; assay type: cell-based, human; conditions: labeling site Lys1, peptide EVAIKIIDK
MSK1 domain1 = biological target: T4, MSK1 domain1 (Homo sapiens, UniProt O75582); test: KiNativ, OCI cells live cell; assay type: cell-based; conditions: 2 h, labeling site Lys2, peptide […]
T4 construct: MSK1 domain1

PAK2 = PAK2 (Homo sapiens, UniProt Q13177); test: KiNativ, OCI cells live cell; assay type: cell-based; conditions: 2 h
PIK3CB = PIK3CB (Homo sapiens, UniProt P42338); test: KiNativ, OCI cells live cell; assay type: cell-based; conditions: 2 h, labeling site ATP, peptide […]
PKCi = PKCi (Homo sapiens, UniProt P41743); test: KiNativ, OCI cells live cell; assay type: cell-based; conditions: 2 h
Chain of PKCi (P41743 whole entry): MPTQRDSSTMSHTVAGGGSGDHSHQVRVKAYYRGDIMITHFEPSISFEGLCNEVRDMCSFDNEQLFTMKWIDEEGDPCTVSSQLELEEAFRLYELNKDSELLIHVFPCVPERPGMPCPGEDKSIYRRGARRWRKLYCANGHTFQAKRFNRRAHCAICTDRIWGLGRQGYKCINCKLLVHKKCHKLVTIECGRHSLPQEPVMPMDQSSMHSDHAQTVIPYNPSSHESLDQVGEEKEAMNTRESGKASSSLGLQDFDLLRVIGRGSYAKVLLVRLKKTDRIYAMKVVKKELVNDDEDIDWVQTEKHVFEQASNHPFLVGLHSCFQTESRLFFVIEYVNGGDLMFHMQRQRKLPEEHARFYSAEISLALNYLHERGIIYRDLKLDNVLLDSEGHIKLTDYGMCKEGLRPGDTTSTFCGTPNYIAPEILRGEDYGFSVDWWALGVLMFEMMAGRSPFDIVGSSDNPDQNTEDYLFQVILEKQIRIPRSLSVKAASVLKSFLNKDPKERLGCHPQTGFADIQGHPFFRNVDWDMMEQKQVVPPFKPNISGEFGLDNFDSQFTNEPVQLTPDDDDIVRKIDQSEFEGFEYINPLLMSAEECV

Chain of CDC2 (P06493 whole entry): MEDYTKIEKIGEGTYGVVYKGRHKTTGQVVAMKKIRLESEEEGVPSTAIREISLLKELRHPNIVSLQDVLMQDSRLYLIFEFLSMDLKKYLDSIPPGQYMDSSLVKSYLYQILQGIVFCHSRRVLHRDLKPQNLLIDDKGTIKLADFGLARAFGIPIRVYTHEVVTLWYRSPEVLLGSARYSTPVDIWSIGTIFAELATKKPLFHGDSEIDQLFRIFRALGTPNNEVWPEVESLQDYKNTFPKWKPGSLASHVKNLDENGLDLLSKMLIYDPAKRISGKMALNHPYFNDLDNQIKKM
Chain of PAK2 (Q13177 whole entry): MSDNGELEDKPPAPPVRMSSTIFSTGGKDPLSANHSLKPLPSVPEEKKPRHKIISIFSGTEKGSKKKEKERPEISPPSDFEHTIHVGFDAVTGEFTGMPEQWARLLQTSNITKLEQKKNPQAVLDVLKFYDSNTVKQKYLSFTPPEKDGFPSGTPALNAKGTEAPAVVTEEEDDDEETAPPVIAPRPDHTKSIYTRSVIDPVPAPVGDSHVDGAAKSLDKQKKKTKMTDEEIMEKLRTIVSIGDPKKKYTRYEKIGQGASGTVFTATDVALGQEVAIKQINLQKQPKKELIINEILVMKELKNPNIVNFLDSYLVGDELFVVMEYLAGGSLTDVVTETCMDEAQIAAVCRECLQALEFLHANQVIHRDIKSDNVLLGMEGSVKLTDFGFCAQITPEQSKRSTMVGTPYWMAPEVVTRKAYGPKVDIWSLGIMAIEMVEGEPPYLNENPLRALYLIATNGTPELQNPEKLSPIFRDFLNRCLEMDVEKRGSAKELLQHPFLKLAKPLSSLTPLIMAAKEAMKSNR
Chain of CaMK1a (Q14012 whole entry): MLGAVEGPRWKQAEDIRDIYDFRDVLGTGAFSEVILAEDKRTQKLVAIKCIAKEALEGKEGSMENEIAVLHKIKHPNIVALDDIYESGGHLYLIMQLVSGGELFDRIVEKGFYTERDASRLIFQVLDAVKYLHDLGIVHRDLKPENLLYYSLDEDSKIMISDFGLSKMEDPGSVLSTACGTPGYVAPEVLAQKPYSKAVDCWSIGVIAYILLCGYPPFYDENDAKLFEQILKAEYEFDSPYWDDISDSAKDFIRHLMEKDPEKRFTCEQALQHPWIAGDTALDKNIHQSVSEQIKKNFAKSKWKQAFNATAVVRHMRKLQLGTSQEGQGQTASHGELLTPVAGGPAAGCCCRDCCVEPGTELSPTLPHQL
Chain of CDK9 (P50750 whole entry): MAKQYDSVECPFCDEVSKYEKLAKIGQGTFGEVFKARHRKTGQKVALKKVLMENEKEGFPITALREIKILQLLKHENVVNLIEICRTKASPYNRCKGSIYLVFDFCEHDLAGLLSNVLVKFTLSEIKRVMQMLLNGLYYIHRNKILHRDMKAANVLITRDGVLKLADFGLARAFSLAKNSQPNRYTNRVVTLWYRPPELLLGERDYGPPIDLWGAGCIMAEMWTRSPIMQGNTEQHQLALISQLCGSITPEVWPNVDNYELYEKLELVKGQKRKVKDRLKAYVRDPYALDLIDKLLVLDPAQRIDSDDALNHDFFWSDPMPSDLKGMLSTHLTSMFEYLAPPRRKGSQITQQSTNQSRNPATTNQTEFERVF
Chain of CDK9 (O60563 whole entry partner): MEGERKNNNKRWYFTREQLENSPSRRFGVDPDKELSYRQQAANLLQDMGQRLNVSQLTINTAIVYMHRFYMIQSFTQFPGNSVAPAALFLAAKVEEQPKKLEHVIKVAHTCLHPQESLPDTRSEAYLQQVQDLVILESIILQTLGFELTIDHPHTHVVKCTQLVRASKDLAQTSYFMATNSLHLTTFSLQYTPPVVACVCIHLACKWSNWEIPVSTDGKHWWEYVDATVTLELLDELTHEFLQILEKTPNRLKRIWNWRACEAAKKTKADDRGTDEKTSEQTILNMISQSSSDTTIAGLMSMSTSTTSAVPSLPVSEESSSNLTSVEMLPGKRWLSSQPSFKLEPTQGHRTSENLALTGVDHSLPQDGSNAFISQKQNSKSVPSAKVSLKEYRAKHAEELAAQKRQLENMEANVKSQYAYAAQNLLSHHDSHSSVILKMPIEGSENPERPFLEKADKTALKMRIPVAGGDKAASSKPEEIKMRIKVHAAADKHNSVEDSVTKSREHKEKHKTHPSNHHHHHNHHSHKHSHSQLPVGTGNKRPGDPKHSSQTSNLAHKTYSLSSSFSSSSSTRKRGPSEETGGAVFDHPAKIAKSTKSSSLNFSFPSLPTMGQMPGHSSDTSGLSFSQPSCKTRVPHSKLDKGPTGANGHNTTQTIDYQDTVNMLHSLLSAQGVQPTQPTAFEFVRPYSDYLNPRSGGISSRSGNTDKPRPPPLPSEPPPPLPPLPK
T2 sequence (Q9P2K8 whole entry, the tested form may be a part): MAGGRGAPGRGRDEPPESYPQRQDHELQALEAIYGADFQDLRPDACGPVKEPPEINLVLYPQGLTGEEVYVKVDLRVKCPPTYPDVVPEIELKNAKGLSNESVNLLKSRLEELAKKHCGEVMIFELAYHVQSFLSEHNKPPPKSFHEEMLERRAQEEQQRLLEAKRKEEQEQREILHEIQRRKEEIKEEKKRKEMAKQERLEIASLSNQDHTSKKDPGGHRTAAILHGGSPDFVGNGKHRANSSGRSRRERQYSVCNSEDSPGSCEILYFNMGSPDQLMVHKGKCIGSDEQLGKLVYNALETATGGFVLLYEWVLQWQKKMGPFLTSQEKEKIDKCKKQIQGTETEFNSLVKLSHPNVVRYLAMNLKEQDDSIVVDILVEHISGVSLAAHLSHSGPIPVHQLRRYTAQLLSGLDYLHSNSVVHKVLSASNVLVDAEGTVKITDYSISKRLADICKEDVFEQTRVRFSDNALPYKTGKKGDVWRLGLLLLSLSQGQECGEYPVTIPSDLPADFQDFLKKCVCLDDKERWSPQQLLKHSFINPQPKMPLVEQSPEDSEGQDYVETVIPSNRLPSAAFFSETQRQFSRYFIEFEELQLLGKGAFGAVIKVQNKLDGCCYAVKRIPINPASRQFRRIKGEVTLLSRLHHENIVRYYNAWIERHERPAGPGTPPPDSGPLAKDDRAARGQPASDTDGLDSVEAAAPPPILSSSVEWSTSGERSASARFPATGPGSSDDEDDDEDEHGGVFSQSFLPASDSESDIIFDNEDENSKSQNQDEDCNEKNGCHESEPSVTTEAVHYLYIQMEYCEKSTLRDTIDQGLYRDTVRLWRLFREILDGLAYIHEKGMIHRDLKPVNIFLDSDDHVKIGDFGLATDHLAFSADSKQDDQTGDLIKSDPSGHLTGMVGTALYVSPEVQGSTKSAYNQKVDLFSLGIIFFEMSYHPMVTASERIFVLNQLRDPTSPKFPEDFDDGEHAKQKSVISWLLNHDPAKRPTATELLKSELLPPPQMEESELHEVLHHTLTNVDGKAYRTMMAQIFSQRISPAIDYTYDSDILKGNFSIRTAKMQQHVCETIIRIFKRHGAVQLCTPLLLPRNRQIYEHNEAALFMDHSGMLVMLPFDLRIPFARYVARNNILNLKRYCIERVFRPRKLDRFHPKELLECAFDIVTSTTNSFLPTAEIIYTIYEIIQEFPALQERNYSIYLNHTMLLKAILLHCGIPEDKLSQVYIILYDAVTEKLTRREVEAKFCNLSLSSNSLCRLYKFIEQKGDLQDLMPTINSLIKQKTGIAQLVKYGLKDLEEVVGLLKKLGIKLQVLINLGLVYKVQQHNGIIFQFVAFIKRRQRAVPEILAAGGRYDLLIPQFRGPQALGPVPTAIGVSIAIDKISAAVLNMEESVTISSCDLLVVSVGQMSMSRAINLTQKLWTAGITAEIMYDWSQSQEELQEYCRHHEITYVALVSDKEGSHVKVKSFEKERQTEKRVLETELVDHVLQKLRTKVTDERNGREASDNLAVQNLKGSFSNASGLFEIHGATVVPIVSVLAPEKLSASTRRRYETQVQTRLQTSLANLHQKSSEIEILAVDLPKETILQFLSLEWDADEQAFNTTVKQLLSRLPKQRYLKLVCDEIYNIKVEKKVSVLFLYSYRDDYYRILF
Chain of FAM20B (O75063 whole entry, the tested form may be a part): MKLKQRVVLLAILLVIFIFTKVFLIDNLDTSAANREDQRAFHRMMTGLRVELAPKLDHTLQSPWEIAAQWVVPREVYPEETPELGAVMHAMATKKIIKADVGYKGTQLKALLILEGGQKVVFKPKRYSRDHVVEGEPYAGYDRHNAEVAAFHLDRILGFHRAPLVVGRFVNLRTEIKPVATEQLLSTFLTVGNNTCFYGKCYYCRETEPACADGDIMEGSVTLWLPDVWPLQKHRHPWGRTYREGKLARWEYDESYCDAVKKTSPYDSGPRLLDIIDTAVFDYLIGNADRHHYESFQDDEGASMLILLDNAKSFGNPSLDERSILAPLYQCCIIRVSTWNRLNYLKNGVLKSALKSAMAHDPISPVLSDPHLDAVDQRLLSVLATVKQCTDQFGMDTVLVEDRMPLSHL

## CN1CCN(Cc2ccc(Nc3ncc(Cl)c(Nc4ccccc4S(=O)(=O)N(C)C)n3)cc2)CC1 [TP-0903]
FLT3 D835Y
  Kd: 1.4 nM
[1]
  IC50: 16 to 21 nM
[2]
  phospho-FLT3 and phospho-STAT5 by immunoblot: inhibition
AGK
  inhibition at 0.1 µM: -26.9%
CaMK1a; labeling site Lys1, peptide LVAIKCIAK
  inhibition at 0.1 µM: -6.6%
CaMK1a; labeling site Lys2, peptide DLKPENLLYYSLDEDSK
  inhibition at 0.1 µM: -19.1%
CDC2; labeling site Lys1, peptide TTGQVVAMKK
  inhibition at 0.1 µM: -4.5%
CDC2; labeling site Lys2, peptide DLKPQNLLIDDK
  inhibition at 0.1 µM: -2.5%
CDC2; labeling site Protein Kinase Domain, peptide KPLFHGDSEIDQLFR
  inhibition at 0.1 µM: -37.1%
CDK9; labeling site ATP Loop, peptide IGQGTFGEVFKAR
  inhibition at 0.1 µM: -30.7%
CDK9; labeling site Lys2, peptide DMKAANVLITR
  inhibition at 0.1 µM: 32.9%
CHK1
  Inhibition: 29.7%
Erk1
  inhibition at 0.1 µM: 17.7%
FAM20B
  inhibition at 0.1 µM: 7.4%
GCN2 domain2; labeling site Lys1, peptide LDGCCYAVKR
  inhibition at 0.1 µM: -6.9%
GCN2 domain2; labeling site Lys2, peptide DLKPVNIFLDSDDHVK
  inhibition at 0.1 µM: -2.8%
KSR1, KSR2
  Inhibition: -3.1%
LCK
  inhibition at 0.1 µM: -4.3%
MAP2K6; labeling site Activation Loop, peptide MCDFGISGYLVDSVAKTIDAGCKPYMAPER
  inhibition at 0.1 µM: 8.8%
MAP2K6; labeling site Lys1, peptide HVPSGQIMAVKR
  inhibition at 0.1 µM: 28%
MAP2K6; labeling site Lys2, peptide DVKPSNVLINALGQVK
  inhibition at 0.1 µM: 18.6%
MARK3
  inhibition at 0.1 µM: 47%
MARK3, MARK4
  Inhibition: 43.9%
MSK1 domain1
  inhibition at 0.1 µM: 8.3%
PAK2; labeling site Lys1, peptide IGQGASGTVFTATDVALGQEVAIKQINLQK
  inhibition at 0.1 µM: -53.1%
PAK2; labeling site Other, peptide KNPQAVLDVLKFYDSNTVK
  inhibition at 0.1 µM: -21.3%
PIK3CB
  inhibition at 0.1 µM: -7.2%
PKCi; labeling site Lys1, peptide IYAMKVVK
  inhibition at 0.1 µM: 9.2%
PKCi; labeling site Lys2, peptide DLKLDNVLLDSEGHIK
  inhibition at 0.1 µM: 8.9%
